Measurements taken from the supplement of paper PMC10307832.

Key:
Experiment in all cases: relative viability (nuclei count vs DMSO), 5 days (fraction); higher = more cells survive
Bemcentinib + Navitoclax = compound: Nc1nc(Nc2ccc3c(c2)CC[C@@H](N2CCCC2)CC3)nn1-c1cc2c(nn1)-c1ccccc1CCC2 [Bemcentinib] + CC1(C)CCC(c2ccc(Cl)cc2)=C(CN2CCN(c3ccc(C(=O)NS(=O)(=O)c4ccc(N[C@H](CCN5CCOCC5)CSc5ccccc5)c(S(=O)(=O)C(F)(F)F)c4)cc3)CC2)C1 [Navitoclax] (partner 0.5 µM)
Outline: (§1)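 Lung cancer cell lines were seeded in 1536-well plates and dosed by pin tool the next day, with either a single drug or a fixed anchor-drug dose combined with five library-drug doses (not always all listed) spaced in √10 steps. Five days later, one step fixed the cells and stained their nuclei (final 0.05% Triton X-100, 1% formaldehyde, 1 ug/ml Hoechst), and nuclei were counted on 4× images. Relative viability is the nuclei count in treated wells divided by the count in vehicle wells, and each value is the median of duplicate plates.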

Bemcentinib + Pemetrexed = compound: Nc1nc(Nc2ccc3c(c2)CC[C@@H](N2CCCC2)CC3)nn1-c1cc2c(nn1)-c1ccccc1CCC2 [Bemcentinib] + Nc1nc2[nH]cc(CCc3ccc(C(=O)N[C@@H](CCC(=O)O)C(=O)O)cc3)c2c(=O)[nH]1 [Pemetrexed] (partner 0.2 µM)
Outline: as §1

Bemcentinib + Dasatinib = compound: Nc1nc(Nc2ccc3c(c2)CC[C@@H](N2CCCC2)CC3)nn1-c1cc2c(nn1)-c1ccccc1CCC2 [Bemcentinib] + Cc1nc(Nc2ncc(C(=O)Nc3c(C)cccc3Cl)s2)cc(N2CCN(CCO)CC2)n1 [Dasatinib] (partner 0.075 µM)
Outline: as §1

Bemcentinib + Foretinib = compound: Nc1nc(Nc2ccc3c(c2)CC[C@@H](N2CCCC2)CC3)nn1-c1cc2c(nn1)-c1ccccc1CCC2 [Bemcentinib] + COc1cc2c(Oc3ccc(NC(=O)C4(C(=O)Nc5ccc(F)cc5)CC4)cc3F)ccnc2cc1OCCCN1CCOCC1 [Foretinib] (partner 0.25 µM)
Outline: as §1

Cell Line | relative viability (Bemcentinib + Navitoclax; first compound 0.04 µM) | relative viability (Bemcentinib + Navitoclax; first compound 0.1265 µM) | relative viability (Bemcentinib + Navitoclax; first compound 0.4 µM) | relative viability (Bemcentinib + Navitoclax; first compound 1.265 µM) | relative viability (Bemcentinib + Navitoclax; first compound 4 µM) | relative viability (Bemcentinib + Pemetrexed; first compound 0.04 µM) | relative viability (Bemcentinib + Pemetrexed; first compound 0.1265 µM) | relative viability (Bemcentinib + Pemetrexed; first compound 0.4 µM) | relative viability (Bemcentinib + Pemetrexed; first compound 1.265 µM) | relative viability (Bemcentinib + Pemetrexed; first compound 4 µM) | relative viability (Bemcentinib + Dasatinib; first compound 0.04 µM) | relative viability (Bemcentinib + Dasatinib; first compound 0.1265 µM) | relative viability (Bemcentinib + Dasatinib; first compound 0.4 µM) | relative viability (Bemcentinib + Dasatinib; first compound 1.265 µM) | relative viability (Bemcentinib + Dasatinib; first compound 4 µM) | relative viability (Bemcentinib + Foretinib; first compound 0.04 µM) | relative viability (Bemcentinib + Foretinib; first compound 0.1265 µM) | relative viability (Bemcentinib + Foretinib; first compound 0.4 µM) | relative viability (Bemcentinib + Foretinib; first compound 1.265 µM) | relative viability (Bemcentinib + Foretinib; first compound 4 µM)
NCI-H2347 | 0.741 | 0.862 | 0.864 | 0.918 | 0.966 | 0.558 | 0.457 | 0.428 | 0.434 | 0.437 | 0.322 | 0.288 | 0.327 | 0.269 | 0.308 | 0.831 | 0.847 | 0.891 | 0.834 | 0.763
NCI-H2405 | 0.788 | 0.868 | 0.859 | 0.877 | 0.84 | 1.01 | 1.12 | 1.14 | 1.11 | 1.19 | 0.194 | 0.22 | 0.21 | 0.215 | 0.165 | 1.05 | 1.02 | 1.03 | 1.12 | 1.04
NCI-H3122 | 1.01 | 1.06 | 1.02 | 1 | 1.03 |  | 0.222 | 0.213 | 0.194 | 0.2 |  | 0.751 | 0.768 | 0.888 | 0.933 |  | 1.06 | 0.972 | 0.943 | 0.948
PC-3 [JPC-3] | 0.803 | 0.827 | 0.865 | 0.848 | 0.826 | 1.12 | 1.32 | 1.28 | 1.07 | 1.07 | 1.04 | 0.589 | 1.19 | 1.01 | 1.08 | 1.07 | 1.05 | 1.1 | 0.992 | 1.03
PC-14 | 1.07 | 1.12 | 1.16 | 1.05 | 0.997 | 0.131 | 0.13 | 0.139 | 0.141 | 0.124 | 0.236 | 0.259 | 0.249 | 0.224 | 0.236 | 1.07 | 0.907 | 1 | 0.959 | 1.02
RERF-LC-KJ | 0.815 | 0.805 | 0.983 | 1.01 | 0.947 | 0.467 | 0.46 | 0.464 | 0.463 | 0.449 | 0.847 | 0.923 | 1.02 | 0.964 | 0.85 | 0.943 | 0.941 | 0.919 | 0.829 | 0.984
SK-LU-1 | 0.867 | 0.986 | 0.894 | 0.807 | 0.615 | 1.02 | 1.04 | 1.08 | 1.08 | 0.984 | 0.181 | 0.201 | 0.197 | 0.191 | 0.155 | 0.854 | 0.988 | 0.89 | 0.896 | 0.826
SK-MES-1 | 1.25 | 1.22 | 1.36 | 1.49 | 1.47 | 0.958 | 1.1 | 0.987 | 1.03 | 0.967 | 0.303 | 0.416 | 0.384 | 0.477 | 0.426 | 1.11 | 0.968 | 0.952 | 1.11 | 1.11
SW 1573 | 0.868 | 0.979 | 1.09 | 1.18 | 0.97 | 0.944 | 0.865 | 0.89 | 0.839 | 0.725 | 0.411 | 0.52 | 0.611 | 0.477 | 0.636 | 0.821 | 0.954 | 0.803 | 0.797 | 0.832
UMC-11 | 0.274 | 0.327 | 0.34 | 0.317 | 0.307 | 0.839 | 0.881 | 0.969 | 0.808 | 0.728 | 0.462 | 0.563 | 0.559 | 0.466 | 0.476 | 0.939 | 1.18 | 1.15 | 1.12 | 1.08
